Results on nine compounds are retold here after ChEMBL document CHEMBL4421723, “Novel drug targets to overcome de novo drug-resistance in multiple myeloma” (2013).

Data set [1] deals with DNA topoisomerase 2-alpha (Homo sapiens) (UniProt P11388). As to the kind of experiment: Inhibition of nuclear export signal of topoisomerase 2alpha in human NCI-H929 cells assessed as reduction in cytoplasmic localization of Top2alpha at 100 uM incubated for 24 hrs by Western blot analysis. The class given is cell-based.
The test system of data set [2] is RPMI-8226. Briefly: Induction of apoptosis in human RPMI8226 cells assessed as increase in cleaved caspase-3 levels at 25 uM incubated for 20 hrs. It counts as functional, cell-based.
For data set [3], the target named is Cellular tumor antigen p53 (Homo sapiens) (UniProt P04637). As to the kind of experiment: Inhibition of p53 nuclear export in human NCI-H929 cells at 25 uM incubated for 20 hrs by Western blot analysis. The class given is cell-based. (In general: Immunoblotting shows a protein as a band on a membrane.)
Data set [4] concerns the target DNA topoisomerase 2-alpha (Homo sapiens) (UniProt P11388). Briefly: Binding affinity to nuclear export signal of topoisomerase 2alpha in human WI38 cells assessed as potentiation of doxorubicin-induced apoptosis by measuring increase in cleaved caspase-3 levels at 25 uM pre-incubated for 20 hrs followed by addition of doxorubicin for 4 hrs. It counts as cell-based.

The target is the same in data set [5]. As to the kind of experiment: Binding affinity to nuclear export signal of topoisomerase 2alpha in human PBMC cells assessed as potentiation of doxorubicin-induced apoptosis by measuring increase in cleaved caspase-3 levels at 25 uM pre-incubated for 20 hrs followed by addition of doxorubicin for 4 hrs. The class given is cell-based.
Data set [6] has the same target. Briefly: Binding affinity to nuclear export signal of topoisomerase 2alpha in human RPMI8226 cells assessed as potentiation of doxorubicin-induced apoptosis by measuring increase in cleaved caspase-3 levels at 25 uM pre-incubated for 20 hrs followed by addition of doxorubicin for 4 hrs. The class given is cell-based.
The target is the same in data set [7]. Briefly: Binding affinity to nuclear export signal of topoisomerase 2alpha in human MCF7 cells assessed as potentiation of doxorubicin-induced apoptosis by measuring increase in cleaved caspase-3 levels at 25 uM pre-incubated for 20 hrs followed by addition of doxorubicin for 4 hrs. The class given is cell-based.
Data set [8] shares this target. Briefly: Binding affinity to nuclear export signal of topoisomerase 2alpha in human HL60 cells assessed as potentiation of doxorubicin-induced apoptosis by measuring increase in cleaved caspase-3 levels at 25 uM pre-incubated for 20 hrs followed by addition of doxorubicin for 4 hrs. The class given is cell-based.
Data set [9] relates to U-266. As to the kind of experiment: Induction of apoptosis in human U266 cells assessed as increase in cleaved caspase-3 levels at 25 uM incubated for 20 hrs. It counts as functional, cell-based.
The target of data set [10] is DNA topoisomerase 2-alpha (Homo sapiens) (UniProt P11388). Briefly: Binding affinity to nuclear export signal of topoisomerase 2alpha in human KG1a cells assessed as potentiation of doxorubicin-induced apoptosis by measuring increase in cleaved caspase-3 levels at 25 uM pre-incubated for 20 hrs followed by addition of doxorubicin for 4 hrs. The class given is cell-based.

The subject of data set [11] is NCI-H929. Briefly: Induction of apoptosis in human NCI-H929 cells assessed as increase in cleaved caspase-3 levels at 25 uM incubated for 20 hrs. It counts as functional, cell-based.
Data set [12] deals with DNA topoisomerase 2-alpha (Homo sapiens) (UniProt P11388). Briefly: Binding affinity to nuclear export signal of topoisomerase 2alpha in human Flow 2000 cells assessed as potentiation of doxorubicin-induced apoptosis by measuring increase in cleaved caspase-3 levels at 25 uM pre-incubated for 20 hrs followed by addition of doxorubicin for 4 hrs. It counts as cell-based.

Data set [13] addresses DNA topoisomerase II (Homo sapiens) (UniProt P11388+Q02880). Briefly: Inhibition of decatenation activity of human topoisomerase 2 using kinetoplast DNA up to 50 uM incubated for 30 mins by agarose gel electrophoresis. It counts as protein assay.
Data set [14] deals with RPMI-8226. As to the kind of experiment: Effect on Top2alpha protein levels in human RPMI8226 cells at 25 uM incubated for 20 hrs by Western blot analysis. It counts as cell-based. As to conditions: rpmi-8226, 20 h.
Data set [15] concerns the target DNA topoisomerase 2-alpha (Homo sapiens) (UniProt P11388). As to the kind of experiment: Binding affinity to nuclear export signal of topoisomerase 2alpha in human U266 cells assessed as potentiation of doxorubicin-induced apoptosis by measuring increase in cleaved caspase-3 levels at 25 uM pre-incubated for 20 hrs followed by addition of doxorubicin for 4 hrs. It counts as cell-based.

The target is the same in data set [16]. Briefly: Binding affinity to nuclear export signal of topoisomerase 2alpha in human NCI-H929 cells assessed as potentiation of doxorubicin-induced apoptosis by measuring increase in cleaved caspase-3 levels at 25 uM pre-incubated for 20 hrs followed by addition of doxorubicin for 4 hrs. It counts as cell-based.
The target is the same in data set [17]. As to the kind of experiment: Inhibition of nuclear export signal of topoisomerase 2alpha in human NCI-H929 cells assessed as reduction in Top2alpha binding to CRM1 at 25 uM incubated for 20 hrs by Western blot analysis and co-immunoprecipitation analysis. It counts as cell-based.
Data set [18] has the same target. Briefly: Inhibition of nuclear export signal of topoisomerase 2alpha in human NCI-H929 cells assessed as increase in nuclear localization of Top2alpha at 50 uM incubated for 2 hrs by Western blot analysis. It counts as cell-based.
Data set [19] has as its target Exportin-1 (Homo sapiens) (UniProt O14980). Briefly: Inhibition of CRM1 in human NCI-H929 cells assessed as increase in nuclear localization of Top2alpha at 50 uM incubated for 2 hrs by Western blot analysis. It counts as cell-based.

The structures appear in SMILES notation. Activity calls are given as the source filed them. The calls are words filed in the database; no cut-off is given here.

Sequence of Cellular tumor antigen p53 (Homo sapiens) (P04637 whole entry, looked up): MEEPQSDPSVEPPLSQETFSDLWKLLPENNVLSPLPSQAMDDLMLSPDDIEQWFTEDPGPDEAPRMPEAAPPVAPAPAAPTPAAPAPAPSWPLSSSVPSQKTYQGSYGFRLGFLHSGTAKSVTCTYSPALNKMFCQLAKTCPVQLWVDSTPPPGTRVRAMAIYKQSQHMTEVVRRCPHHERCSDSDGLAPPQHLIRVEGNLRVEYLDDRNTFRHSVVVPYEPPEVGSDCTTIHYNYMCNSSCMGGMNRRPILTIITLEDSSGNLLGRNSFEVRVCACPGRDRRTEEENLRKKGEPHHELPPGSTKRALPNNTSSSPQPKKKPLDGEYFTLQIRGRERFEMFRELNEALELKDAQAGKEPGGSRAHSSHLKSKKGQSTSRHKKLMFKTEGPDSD
Sequence of DNA topoisomerase 2-alpha (Homo sapiens) (P11388 whole entry): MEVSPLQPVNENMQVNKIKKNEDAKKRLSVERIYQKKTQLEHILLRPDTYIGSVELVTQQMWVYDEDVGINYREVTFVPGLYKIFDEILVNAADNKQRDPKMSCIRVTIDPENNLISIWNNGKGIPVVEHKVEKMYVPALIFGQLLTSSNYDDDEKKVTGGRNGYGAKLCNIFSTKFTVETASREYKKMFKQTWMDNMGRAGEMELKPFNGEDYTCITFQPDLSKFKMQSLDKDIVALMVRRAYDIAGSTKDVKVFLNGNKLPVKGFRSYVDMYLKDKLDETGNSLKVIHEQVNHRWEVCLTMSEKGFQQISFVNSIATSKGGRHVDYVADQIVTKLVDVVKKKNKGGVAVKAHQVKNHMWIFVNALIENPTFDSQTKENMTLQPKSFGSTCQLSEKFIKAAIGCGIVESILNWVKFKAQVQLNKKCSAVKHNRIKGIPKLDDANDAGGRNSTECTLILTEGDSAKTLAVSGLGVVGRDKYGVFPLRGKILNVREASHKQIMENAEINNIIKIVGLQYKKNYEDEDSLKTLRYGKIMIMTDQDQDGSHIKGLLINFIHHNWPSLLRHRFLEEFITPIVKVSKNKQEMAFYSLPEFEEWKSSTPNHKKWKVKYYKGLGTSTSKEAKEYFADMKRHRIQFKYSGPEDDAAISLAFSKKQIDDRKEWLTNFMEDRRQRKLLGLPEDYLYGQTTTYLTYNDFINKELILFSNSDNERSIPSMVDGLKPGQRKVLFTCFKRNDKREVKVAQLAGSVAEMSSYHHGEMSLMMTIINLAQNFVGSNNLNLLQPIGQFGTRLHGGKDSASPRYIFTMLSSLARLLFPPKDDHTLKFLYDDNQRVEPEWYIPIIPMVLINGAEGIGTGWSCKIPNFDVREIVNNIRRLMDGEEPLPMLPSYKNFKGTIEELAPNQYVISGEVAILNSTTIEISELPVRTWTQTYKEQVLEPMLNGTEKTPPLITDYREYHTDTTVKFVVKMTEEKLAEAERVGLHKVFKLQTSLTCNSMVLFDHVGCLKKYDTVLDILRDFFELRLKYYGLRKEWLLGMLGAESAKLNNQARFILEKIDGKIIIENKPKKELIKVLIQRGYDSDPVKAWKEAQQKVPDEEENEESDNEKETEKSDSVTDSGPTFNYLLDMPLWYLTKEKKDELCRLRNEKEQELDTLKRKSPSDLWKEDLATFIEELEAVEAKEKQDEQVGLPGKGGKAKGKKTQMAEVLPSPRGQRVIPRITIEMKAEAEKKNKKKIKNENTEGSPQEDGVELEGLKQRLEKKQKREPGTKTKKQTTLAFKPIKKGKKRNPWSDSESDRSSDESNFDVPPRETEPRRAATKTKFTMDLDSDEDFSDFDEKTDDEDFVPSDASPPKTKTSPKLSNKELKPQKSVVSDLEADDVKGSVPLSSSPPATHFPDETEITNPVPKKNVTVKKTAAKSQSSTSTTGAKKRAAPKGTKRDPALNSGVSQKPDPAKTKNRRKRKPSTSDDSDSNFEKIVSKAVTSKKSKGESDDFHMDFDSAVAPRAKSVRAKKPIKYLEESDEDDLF
Sequence of Exportin-1 (Homo sapiens) (O14980 whole entry): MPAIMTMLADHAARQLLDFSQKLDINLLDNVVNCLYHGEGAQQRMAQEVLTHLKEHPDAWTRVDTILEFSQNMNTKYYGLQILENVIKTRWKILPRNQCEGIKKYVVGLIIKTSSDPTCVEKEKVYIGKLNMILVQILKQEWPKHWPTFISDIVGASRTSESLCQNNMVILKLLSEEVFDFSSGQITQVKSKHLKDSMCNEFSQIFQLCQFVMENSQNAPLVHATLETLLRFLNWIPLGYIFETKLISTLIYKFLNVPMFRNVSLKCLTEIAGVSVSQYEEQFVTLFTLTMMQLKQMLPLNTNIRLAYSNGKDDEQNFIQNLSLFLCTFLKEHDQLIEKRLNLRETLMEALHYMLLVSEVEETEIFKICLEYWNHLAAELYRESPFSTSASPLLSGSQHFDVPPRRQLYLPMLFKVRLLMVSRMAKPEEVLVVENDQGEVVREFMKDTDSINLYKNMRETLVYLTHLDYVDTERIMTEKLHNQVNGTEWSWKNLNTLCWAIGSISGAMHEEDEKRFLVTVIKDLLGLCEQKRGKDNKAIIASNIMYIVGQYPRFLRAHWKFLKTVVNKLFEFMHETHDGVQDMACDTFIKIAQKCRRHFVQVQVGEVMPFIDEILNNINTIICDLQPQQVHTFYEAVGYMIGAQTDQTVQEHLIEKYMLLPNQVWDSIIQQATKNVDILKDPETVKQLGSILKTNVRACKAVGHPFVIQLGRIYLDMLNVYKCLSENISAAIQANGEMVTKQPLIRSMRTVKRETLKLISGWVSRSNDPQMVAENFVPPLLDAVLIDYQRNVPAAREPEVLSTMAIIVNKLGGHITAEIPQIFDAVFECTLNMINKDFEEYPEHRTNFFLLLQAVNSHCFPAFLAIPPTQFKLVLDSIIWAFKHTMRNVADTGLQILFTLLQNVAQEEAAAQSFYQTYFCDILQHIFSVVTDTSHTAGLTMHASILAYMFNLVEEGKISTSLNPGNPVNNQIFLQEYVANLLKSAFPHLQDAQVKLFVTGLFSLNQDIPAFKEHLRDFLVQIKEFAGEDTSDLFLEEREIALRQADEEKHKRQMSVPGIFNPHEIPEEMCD

In the case of `O=C(C[N+]12CN3CN(CN(C3)C1)C2)c1ccc(Br)cc1`, the inhibition result in [1] was “inactive”.
As for `Clc1cc(Cl)c(C[N+]23CN4CN(CN(C4)C2)C3)cc1Cl`, the outcome in [2], in data set [9] and in [11] was inactive. Moreover, the inhibition entry in data set [3], in data set [4], in [5], in data set [8], in data set [10] and in [12] was “inactive” throughout. The inhibition result in data set [13] and in [1] was “inactive” throughout. Further, the outcome in [6], in [15] and in [16] was Active. In addition, the inhibition entry in [7] was “Active”. Also, the Activity entry in data set [14] is listed as “Non-Toxic”.
As to `COCN1CCC2N(COC)CCC3N(COC)CCC1N23` (stereo unspecified), the result in [2], in data set [9] and in data set [11] was inactive. Also, the outcome in data set [6], in data set [15] and in [16] was Active.
For the compound `c1ccc(C2NNC(c3ccccc3)NN2)cc1` (stereo unspecified), the outcome in data set [2], in data set [9] and in data set [11] was inactive. Further, the outcome in data set [6], in [15] and in data set [16] was Active.
For `O=C1c2ccccc2C(=O)C1C(=O)C(c1ccccc1)c1ccccc1` [DIPHENADIONE], the outcome in data set [2], in [9] and in data set [11] was inactive. Also, the inhibition entry in data set [3], in [4], in data set [5], in data set [8], in [10] and in data set [12] was “inactive” throughout. Besides, the inhibition result in data set [13] is “inactive”. The inhibition entry in [17], in data set [18], in data set [7] and in data set [1] was “Active” in each case. Further, the result in [6], in data set [15] and in data set [16] was Active. Besides, the Activity entry in [14] was “Non-Toxic”.
In the case of `O=C(Nc1ccc(C2=NCCN2)cc1)c1ccc(C(=O)Nc2ccc(C3=NCCN3)cc2)c([N+](=O)[O-])c1`, the outcome in data set [2], in data set [9] and in data set [11] was inactive. The inhibition entry in [3], in [4], in data set [5], in data set [8], in data set [10] and in data set [12] was “inactive” each time. For the same compound, in [13], the inhibition entry is “inactive”. Further, the result in [6], in data set [15] and in data set [16] was Active. The inhibition entry in [7] and in data set [1] was “Active” throughout. The Activity entry in data set [14] is listed as “Non-Toxic”.
`Brc1ccc(C[N+]23CN4CN(CN(C4)C2)C3)cc1`: the result in [2], in data set [9] and in data set [11] was inactive. In addition, the inhibition result in [3], in [7] and in data set [1] was “Active” each time. Moreover, the inhibition entry in [4], in data set [5], in [8], in data set [10], in data set [12] and in data set [13] was “inactive” each time. Also, the outcome in [6], in [15] and in data set [16] was Active. In addition, the Activity result in data set [14] is given as “Non-Toxic”.
With `C1CN2C(=N1)N1CCN=C1N1CCN=C21`, the outcome in data set [2], in [9] and in data set [11] was inactive. Also, the result in [6], in [15] and in data set [16] was Active.
On to `C/C=C/[C@@H]1O[C@H]([C@H](O)/C=C/C=C/C[C@@H](C)/C=C(\C=C\[C@H]2CC=CC(=O)O2)CC)C[C@@H](O)[C@@H]1C`, for which the inhibition result in [19] is “Active”.
